For assay [1], the target named is T1, SYMRK (intracellular domain; SYMRK-WT) (Lotus japonicus, UniProt Q8LKX1, S877D/S885D/S889D/S893D).
T1 construct: intracellular kinase region with C-terminal alpha-I motif (intracellular domain modelled as 545-923); E. coli Rosetta 2, pAH10R7Sumo3C, tag cut with 3C, lambda-phosphatase dephosphorylated
The assay can be described thus: nanoDSF thermal stability, […] nm fluorescence. The class given is binding. To be noted: 1 mM ATP, 5 mM MgCl2, pH 7.5, 15 min on ice, 25 to 95 °C at 1 °C/min. (In general: In DSF a fluorescence change marks the thermal transition of the protein.)

Assay [2] addresses T2, SYMRK (intracellular domain; SYMRK-WT) (Lotus japonicus, UniProt Q8LKX1, S877A/S885A/S889A/S893A).
T2 construct: intracellular kinase region with C-terminal alpha-I motif (intracellular domain modelled as 545-923); E. coli Rosetta 2, pAH10R7Sumo3C, tag cut with 3C, lambda-phosphatase dephosphorylated
The assay can be described thus: nanoDSF thermal stability, […] nm fluorescence. To be noted: 1 mM ATP, 5 mM MgCl2, pH 7.5, 15 min on ice, 25 to 95 °C at 1 °C/min. The class given is binding.

Assay [3] concerns the target T3, SYMRK (intracellular domain; SYMRK-WT) (Lotus japonicus, UniProt Q8LKX1).
T3 construct: intracellular kinase region with C-terminal alpha-I motif (intracellular domain modelled as 545-923); E. coli Rosetta 2, pAH10R7Sumo3C, tag cut with 3C, lambda-phosphatase dephosphorylated
T3 sequence (Q8LKX1 545-923 limits assumed): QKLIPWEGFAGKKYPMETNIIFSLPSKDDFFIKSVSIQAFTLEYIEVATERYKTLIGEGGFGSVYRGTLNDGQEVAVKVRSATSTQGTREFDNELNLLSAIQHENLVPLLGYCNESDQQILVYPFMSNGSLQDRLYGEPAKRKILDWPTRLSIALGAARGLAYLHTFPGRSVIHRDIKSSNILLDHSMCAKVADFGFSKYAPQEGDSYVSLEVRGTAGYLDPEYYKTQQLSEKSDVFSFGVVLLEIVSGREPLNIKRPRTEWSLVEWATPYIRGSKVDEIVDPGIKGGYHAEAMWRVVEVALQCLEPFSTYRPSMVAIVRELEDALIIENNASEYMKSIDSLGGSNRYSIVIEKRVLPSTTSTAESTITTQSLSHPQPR
As to the kind of experiment: nanoDSF thermal stability, […] nm fluorescence. Format: binding. To be noted: 1 mM ATP, 5 mM MgCl2, pH 7.5, 15 min on ice, 25 to 95 °C at 1 °C/min.

The target in assay [4] is T3, SYMRK (intracellular domain; SYMRK-WT). As to the kind of experiment: radioactive kinase assay, SDS-PAGE autoradiography. The class given is biochemical. To be noted: labelled compound; 100 nCi, 5 mM MgCl2, MBP co-substrate and autophosphorylation, pH 7.5, room temperature, 1 h.
In assay [5] the target is T2, SYMRK (intracellular domain; SYMRK-WT). As to the kind of experiment: radioactive kinase assay, SDS-PAGE autoradiography. Format: biochemical. To be noted: labelled compound; 100 nCi, 5 mM MgCl2, MBP co-substrate and autophosphorylation, pH 7.5, room temperature, 1 h.

T2 sequence (Q8LKX1 entry or part of it S877A/S885A/S889A/S893A): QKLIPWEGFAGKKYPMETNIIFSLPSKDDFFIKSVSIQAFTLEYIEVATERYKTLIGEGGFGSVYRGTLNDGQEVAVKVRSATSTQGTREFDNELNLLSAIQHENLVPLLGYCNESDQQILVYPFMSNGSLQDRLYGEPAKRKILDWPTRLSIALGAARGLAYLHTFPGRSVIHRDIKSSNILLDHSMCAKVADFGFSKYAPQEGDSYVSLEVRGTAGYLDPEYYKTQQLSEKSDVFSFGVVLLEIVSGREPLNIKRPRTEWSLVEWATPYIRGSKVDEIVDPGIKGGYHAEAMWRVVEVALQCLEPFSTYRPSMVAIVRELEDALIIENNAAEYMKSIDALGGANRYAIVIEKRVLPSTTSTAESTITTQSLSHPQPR
T1 sequence (Q8LKX1 entry or part of it S877D/S885D/S889D/S893D): as the sequence (Q8LKX1 entry or part of it S877A/S885A/S889A/S893A) above, with A333D, A341D, A345D, A349D counted along it

As to `Nc1ncnc2c1ncn2[C@@H]1O[C@H](COP(=O)(O)OP(=O)(O)OP(=O)(O)O)[C@@H](O)[C@H]1O` [ATP], the thermal stabilization result in assay [1] is “we purified SYMRK-4D and found it to be monodisperse, thermostable, ATP binding, and catalytically active”; in assay [2], “all proteins except the catalytically inactive SYMRK-K622E control showed ATP-binding capacity”; in assay [3] it was “all proteins except the catalytically inactive SYMRK-K622E control showed ATP-binding capacity”.

As to `Nc1ncnc2c1ncn2[C@@H]1O[C@H](COP(=O)(O)OP(=O)(O)OP(=O)(O)O)[C@@H](O)[C@H]1O` [γ-32P-labeled ATP], the “radioactive kinase assay, SDS-PAGE autoradiography” value in assay [4] is “SYMRK-4A and SYMRK-WT are active kinases capable of both autophosphorylation and transphosphorylation”; in assay [5] it was “SYMRK-4A and SYMRK-WT are active kinases capable of both autophosphorylation and transphosphorylation”.
